Test results published in patent publication US20240270821A1, “GIP/GLP1/GCG TRI-RECEPTOR AGONISTS AND USES THEREOF” (priority 2023, published 2024).
Where two headings read alike, the source gives them in different places.

Columns and labels:
Assay type in all cases: cell-based
hGLP-1R [1] = target: T1, hGLP-1R (Homo sapiens, UniProt P43220); experiment: Functional cAMP activity in the presence of 1% HSA; conditions: read-out: cAMP Rel EC50, hGLP-1R
hGIPR [2] = target: T2, hGIPR (Homo sapiens, UniProt P48546); experiment: Functional cAMP activity in the presence of 1% HSA; conditions: read-out: cAMP Rel EC50, hGIPR
T2 sequence (P48546 22-466): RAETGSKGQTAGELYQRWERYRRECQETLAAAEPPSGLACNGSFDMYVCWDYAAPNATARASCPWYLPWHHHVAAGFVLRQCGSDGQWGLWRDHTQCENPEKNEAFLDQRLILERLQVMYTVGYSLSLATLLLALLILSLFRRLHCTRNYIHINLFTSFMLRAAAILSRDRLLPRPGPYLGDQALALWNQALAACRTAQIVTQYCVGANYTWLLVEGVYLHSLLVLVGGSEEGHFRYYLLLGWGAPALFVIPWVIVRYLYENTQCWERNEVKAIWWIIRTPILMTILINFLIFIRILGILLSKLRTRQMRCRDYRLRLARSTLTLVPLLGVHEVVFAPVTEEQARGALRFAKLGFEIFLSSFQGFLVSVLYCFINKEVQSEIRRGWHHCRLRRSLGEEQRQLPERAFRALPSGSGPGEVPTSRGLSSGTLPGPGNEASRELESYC

hGIPR [3] = target: T2, hGIPR; experiment: Functional cAMP activation in the presence of 0.1% casein (no HSA); conditions: read-out: Relative cAMP EC50, hGIPR;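 as to Relative cAMP EC50, hGIPR: intracellular cAMP rise after 30 min at 37 °C read by HTRF against a standard curve, scaled between buffer alone (0%) and top control ligand concentration (100%), four-parameter fit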;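 as to Relative cAMP EC50, hGLP-1R: intracellular cAMP rise after 30 min at 37 °C read by HTRF, normalized between buffer only (0%) and maximal control ligand (100%), four-parameter variable-slope fit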;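 as to Relative cAMP EC50, hGcgR: intracellular cAMP rise after 30 min at 37 °C, read by HTRF against a cAMP standard curve, scaled from buffer only (0%) to maximal control ligand response (100%)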
hGcgR = hGcgR (Homo sapiens, UniProt P47871); experiment: as above; conditions: read-out: Relative cAMP EC50, hGcgR;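 also: intracellular cAMP rise after 30 min at 37 °C, read by HTRF against a cAMP standard curve, scaled from buffer only (0%) to maximal control ligand response (100%)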
Chain of hGcgR (P47871 26-477): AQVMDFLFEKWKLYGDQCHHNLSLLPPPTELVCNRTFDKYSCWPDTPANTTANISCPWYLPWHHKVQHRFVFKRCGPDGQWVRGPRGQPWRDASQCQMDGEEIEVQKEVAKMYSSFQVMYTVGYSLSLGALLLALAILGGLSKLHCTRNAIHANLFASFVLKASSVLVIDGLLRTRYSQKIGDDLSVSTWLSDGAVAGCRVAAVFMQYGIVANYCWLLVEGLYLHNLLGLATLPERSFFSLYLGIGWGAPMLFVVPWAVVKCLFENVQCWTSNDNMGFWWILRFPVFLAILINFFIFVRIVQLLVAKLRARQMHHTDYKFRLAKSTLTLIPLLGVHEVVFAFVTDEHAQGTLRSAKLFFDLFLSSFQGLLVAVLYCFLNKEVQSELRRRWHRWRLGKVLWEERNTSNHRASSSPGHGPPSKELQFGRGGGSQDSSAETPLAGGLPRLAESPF

hGLP-1R [4] = target: T1, hGLP-1R; experiment: as above; conditions: read-out: Relative cAMP EC50, hGLP-1R
human GcgR = human GcgR (Homo sapiens, UniProt P47871); experiment: Functional cAMP activity in the presence of 1% HSA; conditions: read-out: cAMP Rel EC50, hGcgR
Chain of human GcgR (P47871 26-477): as above

[5] = in the presence of 0.1% casein (no HSA), geometric mean

T1 sequence (P43220 24-463): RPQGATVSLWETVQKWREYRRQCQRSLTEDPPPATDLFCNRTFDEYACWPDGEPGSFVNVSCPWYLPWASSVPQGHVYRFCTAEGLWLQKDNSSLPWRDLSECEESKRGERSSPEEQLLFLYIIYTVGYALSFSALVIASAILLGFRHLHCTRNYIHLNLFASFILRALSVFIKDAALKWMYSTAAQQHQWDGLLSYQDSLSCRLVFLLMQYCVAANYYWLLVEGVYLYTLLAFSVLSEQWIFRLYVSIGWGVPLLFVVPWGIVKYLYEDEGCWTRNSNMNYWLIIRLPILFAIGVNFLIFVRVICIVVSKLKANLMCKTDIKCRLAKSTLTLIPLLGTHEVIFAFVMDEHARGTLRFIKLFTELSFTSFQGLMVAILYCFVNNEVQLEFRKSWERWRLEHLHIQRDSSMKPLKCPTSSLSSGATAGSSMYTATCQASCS

Question: What does the source list for `CC[C@H](C)[C@H](NC(=O)[C@H](CC(C)C)NC(=O)[C@](C)(Cc1ccc(O)cc1)NC(=O)[C@@H](CCC(=O)O)NC(=O)[C@@H](NC(=O)[C@H](Cc1ccccc1)NC(=O)[C@H](CCC(=O)O)NC(=O)C(C)(C)NC(=O)[C@H](C)NC(=O)[C@H](C)NC(=O)[C@H](CCCCNC(=O)COCCOCCNC(=O)CC[C@H](NC(=O)CCCCCCCCCCCCCCCCC(=O)O)C(=O)O)NC(=O)[C@H](CCCN)NC(=O)[C@H](CC(=O)O)NC(=O)[C@H](CC(C)C)NC(=O)[C@](C)(CC(C)C)NC(=O)[C@@H](NC(=O)[C@](C)(CO)NC(=O)[C@H](Cc1ccncc1)NC(=O)[C@H](CC(=O)O)NC(=O)[C@H](CO)NC(=O)[C@@H](NC(=O)[C@](C)(Cc1ccccc1F)NC(=O)[C@@H](NC(=O)CNC(=O)[C@H](CCC(N)=O)NC(=O)C(C)(C)NC(=O)[C@@H](N)Cc1ccc(O)cc1)[C@@H](C)O)[C@@H](C)O)[C@@H](C)CC)[C@@H](C)CC)C(=O)N[C@@H](CCC(=O)O)C(=O)NCC(=O)NCC(=O)N1CCC[C@H]1C(=O)N[C@@H](CO)C(=O)N[C@@H](CO)C(=O)NCC(=O)N[C@@H](C)C(=O)N1CCC[C@H]1C(=O)N1CCC[C@H]1C(=O)N1CCC[C@H]1C(=O)N[C@@H](CO)C(=O)NCC(=O)N[C@H](C(=O)NCC(=O)N[C@H](CCC(=O)O)C(N)=O)[C@@H](C)O` [Example 723]?
Answer: EC50 (hGLP-1R [1]): 26.5 nM; EC50 (hGIPR [2]): 1.02 nM; EC50 (hGIPR [3]): 0.0118 nM; EC50 (hGcgR): 1.82 nM; EC50 (hGLP-1R [4]): 0.255 nM; EC50 (human GcgR): 179 nM

Question: What does the source list for `CC[C@H](C)[C@H](NC(=O)[C@H](Cc1ccccc1)NC(=O)[C@H](C)NC(=O)C(C)(C)NC(=O)[C@H](CCC(N)=O)NC(=O)[C@H](C)NC(=O)[C@H](CCCCNC(=O)COCCOCCNC(=O)CC[C@H](NC(=O)CCCCCCCCCCCCCCCCC(=O)O)C(=O)O)NC(=O)[C@H](CCCCN)NC(=O)[C@H](CC(=O)O)NC(=O)[C@H](CC(C)C)NC(=O)[C@](C)(CC(C)C)NC(=O)[C@H](CCC(N)=O)NC(=O)[C@H](CO)NC(=O)[C@H](Cc1ccncc1)NC(=O)[C@H](CC(=O)O)NC(=O)[C@H](CO)NC(=O)[C@@H](NC(=O)[C@H](Cc1ccccc1)NC(=O)[C@@H](NC(=O)CNC(=O)[C@H](CCC(N)=O)NC(=O)C(C)(C)NC(=O)[C@@H](N)Cc1ccc(O)cc1)[C@@H](C)O)[C@@H](C)O)C(=O)N[C@@H](CCC(=O)O)C(=O)N[C@@H](Cc1ccc(O)cc1)C(=O)N[C@@H](CC(C)C)C(=O)N[C@@H](CC(C)C)C(=O)N[C@@H](CCC(=O)O)C(=O)N[C@H](C)C(=O)NCC(=O)N1CCC[C@H]1C(=O)N[C@@H](CO)C(=O)N[C@@H](CO)C(=O)NCC(=O)N[C@@H](C)C(=O)N1CCC[C@H]1C(=O)N1CCC[C@H]1C(=O)N1CCC[C@H]1C(=O)N[C@@H](CO)C(=O)NCC(=O)N[C@H](C(N)=O)[C@@H](C)O` [Example 821]?
Answer: EC50 (hGLP-1R [1]): 362 nM; EC50 (hGIPR [2]): 26.1 nM; EC50 (hGIPR [3]; [5]): 0.152 nM; EC50 (hGcgR; [5]): 6.74 nM; EC50 (hGLP-1R [4]; [5]): 2.79 nM; EC50 (human GcgR): 989 nM

Question: With `CC[C@H](C)[C@H](NC(=O)[C@H](CC(C)C)NC(=O)[C@H](Cc1ccc(O)cc1)NC(=O)[C@H](CCC(=O)O)NC(=O)[C@@H](NC(=O)[C@H](Cc1ccccc1)NC(=O)[C@H](C)NC(=O)[C@](C)(Cc1ccncc1)NC(=O)[C@H](CCC(N)=O)NC(=O)[C@H](C)NC(=O)[C@H](CCCCNC(=O)COCCOCCNC(=O)CC[C@H](NC(=O)CCCCCCCCCCCCCCCCC(=O)O)C(=O)O)NC(=O)[C@H](CCCCN)NC(=O)[C@H](CC(=O)O)NC(=O)[C@H](CC(C)C)NC(=O)[C@](C)(CC(C)C)NC(=O)[C@H](CCC(N)=O)NC(=O)[C@H](CO)NC(=O)[C@H](Cc1ccncc1)NC(=O)[C@H](CC(=O)O)NC(=O)[C@H](CO)NC(=O)[C@@H](NC(=O)[C@H](Cc1ccccc1)NC(=O)[C@@H](NC(=O)CNC(=O)[C@H](CCC(N)=O)NC(=O)C(C)(C)NC(=O)[C@@H](N)Cc1ccc(O)cc1)[C@@H](C)O)[C@@H](C)O)[C@@H](C)CC)C(=O)N[C@@H](C)C(=O)NCC(=O)NCC(=O)N1CCC[C@H]1C(=O)N[C@@H](CO)C(=O)N[C@@H](CO)C(=O)NCC(=O)N[C@@H](C)C(=O)N1CCC[C@H]1C(=O)N1CCC[C@H]1C(=O)N1CCC[C@H]1C(=O)N[C@@H](CO)C(=O)NCC(=O)N[C@@H](CO)C(N)=O` [Example 827] as the compound, how does the EC50 (hGLP-1R [1]) read?
Answer: Its EC50 is 53.8 nM.

Question: What about the EC50 (hGIPR [2]) of the same compound?
Answer: Its EC50 is 19.5 nM.

Question: What about the EC50 (hGIPR [3]; [5]) of the same compound?
Answer: Its EC50 is 0.12 nM.

Question: And the EC50 (hGcgR; [5])?
Answer: Its EC50 is 4.23 nM.

Question: What about the EC50 (hGLP-1R [4]; [5]) of the same compound?
Answer: The EC50 was 0.593 nM.

Question: What about the EC50 (human GcgR) of the same compound?
Answer: Its EC50 is 424 nM.

Question: What does the source list for `CC[C@H](C)[C@H](NC(=O)[C@H](CC(C)C)NC(=O)[C@H](Cc1ccc(O)cc1)NC(=O)[C@H](CCC(=O)O)NC(=O)[C@@H](NC(=O)[C@H](Cc1ccccc1)NC(=O)[C@H](C)NC(=O)[C@](C)(Cc1ccncc1)NC(=O)[C@H](CCC(N)=O)NC(=O)[C@H](C)NC(=O)[C@H](CCCCNC(=O)COCCOCCNC(=O)CC[C@H](NC(=O)CC[C@H](NC(=O)CCCCCCCCCCCCCCCCC(=O)O)C(=O)O)C(=O)O)NC(=O)[C@H](CCCCN)NC(=O)[C@H](CC(=O)O)NC(=O)[C@H](CC(C)C)NC(=O)[C@](C)(CC(C)C)NC(=O)[C@H](CCC(N)=O)NC(=O)[C@H](CO)NC(=O)[C@H](Cc1ccncc1)NC(=O)[C@H](CC(=O)O)NC(=O)[C@H](CO)NC(=O)[C@@H](NC(=O)[C@H](Cc1ccccc1)NC(=O)[C@@H](NC(=O)CNC(=O)[C@H](CCC(N)=O)NC(=O)C(C)(C)NC(=O)[C@@H](N)Cc1ccc(O)cc1)[C@@H](C)O)[C@@H](C)O)[C@@H](C)CC)C(=O)N[C@@H](C)C(=O)NCC(=O)NCC(=O)N1CCC[C@H]1C(=O)N[C@@H](CO)C(=O)N[C@@H](CO)C(=O)NCC(=O)N[C@@H](C)C(=O)N1CCC[C@H]1C(=O)N1CCC[C@H]1C(=O)N1CCC[C@H]1C(=O)N[C@@H](CO)C(=O)NCC(=O)N[C@@H](CO)C(N)=O` [Example 869]?
Answer: EC50 (hGLP-1R [1]): 114 nM; EC50 (hGIPR [2]): 14.1 nM; EC50 (hGIPR [3]; [5]): 0.142 nM; EC50 (hGcgR; [5]): 9.94 nM; EC50 (hGLP-1R [4]; [5]): 2 nM; EC50 (human GcgR): 571 nM

Question: Which results are given for `CC[C@H](C)[C@H](NC(=O)[C@H](CC(C)C)NC(=O)[C@H](Cc1ccc(O)cc1)NC(=O)[C@H](CCC(=O)O)NC(=O)[C@@H](NC(=O)[C@H](Cc1ccccc1)NC(=O)[C@H](C)NC(=O)[C@](C)(Cc1ccncc1)NC(=O)[C@H](CCC(N)=O)NC(=O)[C@H](C)NC(=O)[C@H](CCCCNC(=O)CC[C@H](NC(=O)CC[C@H](NC(=O)CCCCCCCCCCCCCCCCC(=O)O)C(=O)O)C(=O)O)NC(=O)[C@H](CCCCN)NC(=O)[C@H](CC(=O)O)NC(=O)[C@H](CC(C)C)NC(=O)[C@](C)(CC(C)C)NC(=O)[C@H](CCC(N)=O)NC(=O)[C@H](CO)NC(=O)[C@H](Cc1ccncc1)NC(=O)[C@H](CC(=O)O)NC(=O)[C@H](CO)NC(=O)[C@@H](NC(=O)[C@H](Cc1ccccc1)NC(=O)[C@@H](NC(=O)CNC(=O)[C@H](CCC(N)=O)NC(=O)C(C)(C)NC(=O)[C@@H](N)Cc1ccc(O)cc1)[C@@H](C)O)[C@@H](C)O)[C@@H](C)CC)C(=O)N[C@@H](C)C(=O)NCC(=O)NCC(=O)N1CCC[C@H]1C(=O)N[C@@H](CO)C(=O)N[C@@H](CO)C(=O)NCC(=O)N[C@@H](C)C(=O)N1CCC[C@H]1C(=O)N1CCC[C@H]1C(=O)N1CCC[C@H]1C(=O)N[C@@H](CO)C(=O)NCC(=O)N[C@@H](CO)C(N)=O` [Example 870]?
Answer: EC50 (hGLP-1R [1]): 71.2 nM; EC50 (hGIPR [2]): 7.29 nM; EC50 (hGIPR [3]; [5]): 0.0698 nM; EC50 (hGcgR; [5]): 4.4 nM; EC50 (hGLP-1R [4]; [5]): 0.962 nM; EC50 (human GcgR): 736 nM

Question: With `CC[C@H](C)[C@H](NC(=O)[C@H](CC(C)C)NC(=O)[C@H](Cc1ccc(O)cc1)NC(=O)[C@H](CCC(=O)O)NC(=O)[C@@H](NC(=O)[C@H](Cc1ccccc1)NC(=O)[C@H](CCC(=O)O)NC(=O)[C@](C)(Cc1ccncc1)NC(=O)[C@H](CCC(N)=O)NC(=O)[C@H](C)NC(=O)[C@H](CCCCNC(=O)CC[C@H](NC(=O)CC[C@H](NC(=O)CCCCCCCCCCCCCCCCC(=O)O)C(=O)O)C(=O)O)NC(=O)[C@H](CCCN)NC(=O)[C@H](CC(=O)O)NC(=O)[C@H](CC(C)C)NC(=O)[C@](C)(CC(C)C)NC(=O)[C@H](CCCN)NC(=O)[C@H](CO)NC(=O)[C@H](Cc1ccncc1)NC(=O)[C@H](CC(=O)O)NC(=O)[C@H](CO)NC(=O)[C@@H](NC(=O)[C@H](Cc1ccccc1)NC(=O)[C@@H](NC(=O)CNC(=O)[C@H](CCC(N)=O)NC(=O)C(C)(C)NC(=O)[C@@H](N)Cc1ccc(O)cc1)[C@@H](C)O)[C@@H](C)O)[C@@H](C)CC)C(=O)N[C@@H](C)C(=O)NCC(=O)NCC(=O)N1CCC[C@H]1C(=O)N[C@@H](CO)C(=O)N[C@@H](CO)C(=O)NCC(=O)N[C@@H](C)C(=O)N1CCC[C@H]1C(=O)N1CCC[C@H]1C(=O)N1CCC[C@H]1C(=O)N[C@@H](CO)C(=O)NCC(=O)N[C@@H](CO)C(=O)N[C@@H](CCC(=O)O)C(=O)N[C@@H](CCC(=O)O)C(N)=O` [Example 1001] as the compound, how does the EC50 (hGLP-1R [1]) read?
Answer: Its EC50 is 295 nM.

Question: And the EC50 (hGIPR [2])?
Answer: Its EC50 is 20 nM.

Question: What about the EC50 (hGIPR [3]; [5]) of the same compound?
Answer: The EC50 was 0.4 nM.

Question: And the EC50 (hGcgR; [5])?
Answer: Its EC50 is 22.5 nM.

Question: What about the EC50 (hGLP-1R [4]; [5]) of the same compound?
Answer: The EC50 was 4.59 nM.

Question: What about the EC50 (human GcgR) of the same compound?
Answer: Its EC50 is 1170 nM.
